Results from ChEMBL document CHEMBL1139779, “3,3-diphenylpentane skeleton as a steroid skeleton substitute: novel inhibitors of human 5alpha-reductase 1” (Bioorg Med Chem Lett, 2007).

B1: 3-oxo-5-alpha-steroid 4-dehydrogenase 1 (Homo sapiens), P18405 (protein)
chain: MATATGVAEERLLAALAYLQCAVGCAVFARNRQTNSVYGRHALPSHRLRVPARAAWVVQELPSLALPLYQYASESAPRLRSAPNCILLAMFLVHYGHRCLIYPFLMRGGKPMPLLACTMAIMFCTCNGYLQSRYLSHCAVYADDWVTDPRFLIGFGLWLTGMLINIHSDHILRNLRKPGDTGYKIPRGGLFEYVTAANYFGEIMEWCGYALASWSVQGAAFAFFTFCFLSGRAKEHHEWYLRKFEEYPKFRKIIIPFLF

Experiments:
[1] = target: T1, 3-oxo-5-alpha-steroid 4-dehydrogenase 1 (Homo sapiens, UniProt P18405); assay: Inhibition of human 5-alpha reductase 1 expressed in LNCap cells; format: cell-based
T1 sequence (P18405 whole entry): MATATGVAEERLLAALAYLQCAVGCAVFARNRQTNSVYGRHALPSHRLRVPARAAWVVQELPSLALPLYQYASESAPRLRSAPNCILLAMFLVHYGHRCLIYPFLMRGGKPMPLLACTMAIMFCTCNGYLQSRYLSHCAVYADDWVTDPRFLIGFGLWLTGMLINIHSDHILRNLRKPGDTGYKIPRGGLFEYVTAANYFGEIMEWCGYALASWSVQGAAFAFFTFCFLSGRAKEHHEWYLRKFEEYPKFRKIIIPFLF

[2] = target: T2, 3-oxo-5-alpha-steroid 4-dehydrogenase 1 (Homo sapiens) (UniProt P18405); assay: Inhibition of human 5-alpha reductase 1 expressed in LNCap cells at 1 uM; format: cell-based
T2 sequence (whole entry): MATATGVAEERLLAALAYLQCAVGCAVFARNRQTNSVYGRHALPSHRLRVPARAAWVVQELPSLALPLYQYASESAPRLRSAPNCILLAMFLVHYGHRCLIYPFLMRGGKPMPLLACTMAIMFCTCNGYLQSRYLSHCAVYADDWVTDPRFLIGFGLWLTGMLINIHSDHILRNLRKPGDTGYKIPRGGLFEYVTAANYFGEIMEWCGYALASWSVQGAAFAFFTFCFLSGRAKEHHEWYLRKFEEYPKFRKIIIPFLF

[3] = target: T2, 3-oxo-5-alpha-steroid 4-dehydrogenase 1 (Homo sapiens); assay: Inhibition of human 5-alpha reductase 1 expressed in LNCap cells at 10 uM; format: cell-based
[4] = substrate: CCC(CC)(c1ccc(OC(=O)N(Cc2ccccc2)Cc2ccccc2)cc1)c1ccc(N(C)C(C)=O)cc1; assay: Activity of 5-alpha reductase 1 at 1 uM

Row | Molecule | inhibition [3] | also measured
1 | CCC(CC)(c1ccc(OC(=O)N(Cc2ccccc2)Cc2ccccc2)cc1)c1ccc(N(C)C(C)=O)cc1 | – | IC50 [1]: 0.84 µM; inhibition [2]: 51%
2 | CCN(CC)C(=O)Oc1ccc(C(CC)(CC)c2ccc(N(C)C(C)=O)cc2)cc1 | 65% | IC50 [1]: 9.2 µM
3 | CCC(CC)(c1ccc(OC(=O)N2CCN(C)CC2)cc1)c1ccc(N(C)C(C)=O)cc1 | 17% | –
4 | CCC(CC)(c1ccc(OC(=O)N(C(C)C)C(C)C)cc1)c1ccc(N(C)C(C)=O)cc1 | 72% | IC50 [1]: 4 µM
5 | CCC(CC)(c1ccc(OC(=O)N2CCCC2)cc1)c1ccc(N(C)C(C)=O)cc1 | 57% | –
6 | CCC(CC)(c1ccc(OC(=O)N2CCCCCC2)cc1)c1ccc(N(C)C(C)=O)cc1 | 70% | IC50 [1]: 4.7 µM
7 | CCN(CC)C(=O)Oc1ccc(C2(c3ccc(N(C)C(C)=O)cc3)CCCCCC2)cc1 | 25% | –
8 | CCC(CC)(c1ccc(OC(=O)N2CCCCCCC2)cc1)c1ccc(N(C)C(C)=O)cc1 | – | inhibition [2]: 20%
9 | CCCN(CCC)C(=O)Oc1ccc(C(CC)(CC)c2ccc(N(C)C(C)=O)cc2)cc1 | 77% | IC50 [1]: 2.9 µM; inhibition [2]: 26%
10 | CCCC(CCC)(c1ccc(OC(=O)N(CC)CC)cc1)c1ccc(N(C)C(C)=O)cc1 | 27% | –
11 | CCN(CC)C(=O)Oc1ccc(C(CC)(CC)c2ccc(N(C)C(C)=O)c(C)c2)cc1 | 25% | –
12 | CCC(C)N(C(=O)Oc1ccc(C(CC)(CC)c2ccc(N(C)C(C)=O)cc2)cc1)C(C)CC (configuration not stated) | – | inhibition [2]: 22%
13 | CCN(CC)C(=O)Oc1ccc(C2(c3ccc(N(C)C(C)=O)cc3)CCCCC2)cc1 | 46% | –
14 | CCN(CC)C(=O)Oc1ccc(C(CC)(CC)c2ccc(NC(C)=O)c(C)c2)cc1C | 17% | –
15 | CCN(CC)C(=O)Oc1ccc(C(CC)(CC)c2ccc(N(C)C(C)=O)cc2)cc1C | 56% | –
16 | CCCCN(CCCC)C(=O)Oc1ccc(C(CC)(CC)c2ccc(N(C)C(C)=O)cc2)cc1 | – | inhibition [2]: 32%
17 | CCN(CC)C(=O)Oc1ccc(C2(c3ccc(N(C)C(C)=O)cc3)CCCC2)cc1 | 5% | –
18 | CCN(CC)C(=O)Oc1ccc(C(C)(C)c2ccc(N(C)C(C)=O)cc2)cc1 | 16% | –
19 | CCC(CC)(c1ccc(OC(=O)N2CCOCC2)cc1)c1ccc(N(C)C(C)=O)cc1 | 15% | –
20 | CCN(CC)C(=O)Oc1ccc(C(CC)(CC)c2ccc(N(C)C(C)=O)c(C)c2)cc1C | 22% | –
21 | CCC(CC)(c1ccc(OC(=O)N2CCCCC2)cc1)c1ccc(N(C)C(C)=O)cc1 | 68% | IC50 [1]: 4.7 µM
22 | CCC(CC)(c1ccc(OC(=O)N(C)C)cc1)c1ccc(N(C)C(C)=O)cc1 | 29% | –
23 | CCN(CC)C(=O)Oc1ccc(C2(c3ccc(N(C)C(C)=O)cc3)CCC2)cc1 | 16% | –
24 | B1 | – | Km [4]: 9.1 µM; Vmax [4]: 13.4 nM/h
